Read-outs that look alike come from different tables or passages of the source. Marks after values point to notes of the source that are not given here.

One assay concerns LLC-PK1 cells. The experiment in a line: Apical uptake of L-DOPA in LLC-PK1 cells. It counts as cell-based, porcine. Here is the method:
Cell culture LLC-PK1 cells, a porcine-derived proximal renal tubule epithelial cell line which retains several properties of proximal tubular epithelial cells in culture (Hull, R. N., et al., 1976, In Vitro 12; 670-677), were obtained from the American Type Culture Collection (Rockville, Md.). LLC-PK1 cells (ATCC CRL 1392; passages 198-206) and were maintained in a humidified atmosphere of 5% CO2-95% air at 37° C. and grown in Medium 199 (Sigma Chemical Company, St. Louis, Mo., USA) supplemented with 100 U/ml penicillin G, 0.25 μg/ml amphotericin B, 100 μg/ml streptomycin (Sigma), 3% foetal bovine serum (Sigma) and 25 mM N-2-hydroxyethylpiperazine-N'-2-ethanesulfonic acid (HEPES; Sigma). For subculturing, the cells were dissociated with 0.05% trypsin-EDTA, split 1:4 and subcultured in Costar flasks with 75- or 162-cm^2 growth areas (Costar, Badhoevedorp, The Netherlands). […] The cell medium was changed every 2 days, and the cells reached confluence after 3-5 days of incubation. For 24 hours prior to each experiment, the cell medium was free of foetal bovine serum. […] On the day of the experiment, the growth medium was aspirated and the cells washed with Hanks' medium; thereafter, the cell monolayers were preincubated for 15 min in Hanks' medium at 37° C. The Hanks' medium had the following composition (mM): […] Test substances were applied from the apical side only, and were present during the preincubation and incubation periods. During preincubation and incubation, the cells were continuously shaken and maintained at 37° C.

The nature of assay [1]: Levels of L-DOPA, dopamine, DOPAC and HVA in rat brain and kidney. It counts as in vivo. On the procedure:
(§1) Male Wistar rats weighing 170-280 g, kept two per cage under controlled environmental conditions (12 h light/dark cycle and room temperature 24° C.), were used in all experiments. […] The high pressure liquid chromatograph system consisted of a pump (Gilson model 302; Gilson Medical Electronics, […] Bel, France) connected to a manometric module (Gilson model 802 C) and a stainless-steel 5 μm ODS column (Biophase; Bioanalytical Systems, West Lafayette, Ind.) of 25 cm length; samples were injected by means of an automatic sample injector (Gilson model 231) connected to a Gilson dilutor (model 401). […] The detection was carried out electrochemically with a glassy carbon electrode, an Ag/AgCl reference electrode and an amperometric detector (Gilson model 141); the detector cell was operated at 0.75 V. The current produced was monitored using the Gilson 712 HPLC software.

Assay [2] addresses T1, aromatic L-amino acid decarboxylase (AADC) (Sus scrofa, UniProt P80041).
T1 construct: host or cells: LLC-PK1 cells
T1 sequence (P80041 1-486): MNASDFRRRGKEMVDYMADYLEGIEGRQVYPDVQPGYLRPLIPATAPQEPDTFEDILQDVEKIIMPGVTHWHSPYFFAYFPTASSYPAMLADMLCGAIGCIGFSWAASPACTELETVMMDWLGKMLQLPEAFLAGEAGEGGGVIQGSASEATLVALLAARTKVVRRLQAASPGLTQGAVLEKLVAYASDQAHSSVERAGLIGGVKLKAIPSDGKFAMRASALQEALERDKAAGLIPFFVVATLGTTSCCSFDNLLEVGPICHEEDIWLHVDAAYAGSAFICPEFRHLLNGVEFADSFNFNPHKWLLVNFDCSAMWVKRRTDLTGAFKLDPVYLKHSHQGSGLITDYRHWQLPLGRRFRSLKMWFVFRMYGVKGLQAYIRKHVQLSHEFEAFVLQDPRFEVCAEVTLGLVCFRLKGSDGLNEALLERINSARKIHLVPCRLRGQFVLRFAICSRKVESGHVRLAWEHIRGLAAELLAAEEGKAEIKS
The experiment in a line: Decarboxylation of L-DOPA (AADC activity) in LLC-PK1 cells. It counts as cell-based, porcine. The conditions noted are these: read-out: inhibition of AADC activity IC50. On the procedure: On the day of the experiment, the growth medium was aspirated and the cells (LLC-PK1) washed with Hanks' medium; thereafter, the cell monolayers were preincubated for 15 min in Hanks' medium at 37° C. […] The incubation medium also contained pyridoxal phosphate (120 μM), tolcapone (1 μM) and pargyline (100 μM). […] After preincubation, cells were incubated for 6 min in Hanks' medium with 250 μM LDOPA. The reaction was terminated by the addition of 250 μl of […] perchloric acid. The acidified samples were stored at 4° C. before injection into the high pressure liquid chromatograph for the assay of dopamine.
The high pressure liquid chromatograph system consisted of a pump (Gilson model 302; Gilson Medical Electronics, Villiers le Bel, France) connected to a manometric module (Gilson model 802 C) and a stainless-steel 5 μm ODS column (Biophase; Bioanalytical Systems, West Lafayette, Ind.) of 25 cm length; samples were injected by means of an automatic sample injector (Gilson model 231) connected to a Gilson dilutor (model 401). […] The detection was carried out electrochemically with a glassy carbon electrode, an Ag/AgCl reference electrode and an amperometric detector (Gilson model 141); the detector cell was operated at 0.75 V. The current produced was monitored using the Gilson 712 HPLC software.

Assay [3] can be described thus: Levels of L-DOPA in plasma of rats. It counts as in vivo, rat. The conditions noted are these: oral, 30 min before L-DOPA 12 mg/kg plus benserazide 3 mg/kg. On the procedure:
as §1

Assay [4] deals with T2, aromatic L-amino acid decarboxylase (AADC) (Rattus norvegicus, UniProt P14173).
T2 construct: from tissue; host or cells: brain, liver and kidney of male Wistar rats
T2 sequence (P14173 1-480): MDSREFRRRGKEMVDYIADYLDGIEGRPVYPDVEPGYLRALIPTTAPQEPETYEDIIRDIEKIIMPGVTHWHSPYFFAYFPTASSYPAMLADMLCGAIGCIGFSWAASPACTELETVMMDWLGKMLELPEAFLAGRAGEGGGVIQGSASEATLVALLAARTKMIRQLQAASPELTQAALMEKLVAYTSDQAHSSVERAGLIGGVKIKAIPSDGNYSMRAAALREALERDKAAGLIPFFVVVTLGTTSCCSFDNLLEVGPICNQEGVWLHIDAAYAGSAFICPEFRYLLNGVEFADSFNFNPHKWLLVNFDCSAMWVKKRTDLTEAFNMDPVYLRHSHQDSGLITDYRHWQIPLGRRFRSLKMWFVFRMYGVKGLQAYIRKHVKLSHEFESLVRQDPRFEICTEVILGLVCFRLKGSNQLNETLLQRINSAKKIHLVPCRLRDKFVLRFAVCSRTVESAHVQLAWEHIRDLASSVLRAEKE
The assay can be described thus: Assay of AADC in rat tissues (brain, liver, kidney) under Vmax conditions. As to conditions: 30 mg/kg. It counts as in vivo. On the procedure: Male Wistar rats weighing 170-280 g, kept two per cage under controlled environmental conditions (12 h light/dark cycle and room temperature 24° C.), were used in all experiments.
The reaction was stopped by the addition of 500 μl of 2 M perchloric acid and the preparations kept at 4° C. for 60 min. The samples were then centrifuged (200 g, 2 min. 4° C.) and 500 μl aliquots of the supernatant filtered on Spin-X filter tubes (Costar) were used for the assay of dopamine.
Since high doses of benserazide may result in inhibition of AADC in brain (Da Prada, et al., 1987, Eur.

Setting [5] is: brain, L-DOPA 12 mg/kg alone, 60 min.
[6] abbreviates: brain, R 0.3 mg/kg 30 min before L 12 mg/kg + B 3 mg/kg, 60 min after L + B.
[7] abbreviates: brain, R 1.0 mg/kg 30 min before L 12 mg/kg + B 3 mg/kg, 60 min after L + B.
[8] abbreviates: brain, R 3.0 mg/kg 30 min before L 12 mg/kg + B 3 mg/kg, 60 min after L + B.
Setting [9] is: brain, R 10.0 mg/kg 30 min before L 12 mg/kg + B 3 mg/kg, 60 min after L + B.
The mark [10] stands for this setting: brain, R 30.0 mg/kg 30 min before L 12 mg/kg + B 3 mg/kg, 60 min after L + B.
Where [11] appears, read: kidney, R 0.3 mg/kg 30 min before L 12 mg/kg + B 3 mg/kg, 60 min after L + B.
Setting [12] is: kidney, R 1.0 mg/kg 30 min before L 12 mg/kg + B 3 mg/kg, 60 min after L + B.
Setting [13] is: kidney, R 3.0 mg/kg 30 min before L 12 mg/kg + B 3 mg/kg, 60 min after L + B.
The mark [14] stands for this setting: kidney, R 10.0 mg/kg 30 min before L 12 mg/kg + B 3 mg/kg, 60 min after L + B.
Where [15] appears, read: kidney, R 30.0 mg/kg 30 min before L 12 mg/kg + B 3 mg/kg, 60 min after L + B.

The IC50 is the concentration that inhibits the measured activity by half. By Km is commonly meant the substrate concentration at which the rate is half of its maximum. Regarding `NC1(C(=O)O)CC2CCC1C2` (centres unmarked) [BHC, 2-aminobicyclo(2,2,1)-heptane-2-carboxylic acid], in the assay with LLC-PK1 cells (1 mM BHC), the “Vmax for L-DOPA uptake in presence of inhibitor” value is recorded as 3783±244 pmol/mg protein/6 min and the “type of inhibitory effect on the accumulation of L-DOPA” value is recorded as “competitive type”. For the same compound, in the assay with LLC-PK1 cells (Sus scrofa, LLC-PK1, read-out: inhibition of L-DOPA uptake IC50), the IC50 is 407 µM. For the same compound, the Michaelis constant (Km) in the assay on LLC-PK1 cells (read-out: Km for L-DOPA uptake in presence of inhibitor, 1 mM BHC) was 130 ± 19 µM.
In assay [1] (setting [5]), `N[C@@H](Cc1ccc(O)c(O)c1)C(=O)O` [L-DOPA, L-3,4-dihydroxyphenylalanine, reference compound] returned a DA level of 201.0 ± 19.6 ng/g, a DOPAC level of 24.3 ± 2.4 ng/g, an HVA level of 320.6 ± 37.4 ng/g and a L-DOPA level of 9.6 ± 1.0 ng/g. In assay [1] (kidney, L-DOPA 12 mg/kg alone, 60 min), this compound displayed a DA level of 120.8 ± 27.5 ng/g. Besides, the “Vmax of L-DOPA apical transporter” value with LLC-PK1 cells (6 min, 1 to 250 μM substrate) is 3069±224 pmol mg protein/6 min. Also, the “intracellular L-DOPA concentration” value in the assay with LLC-PK1 cells (6 min incubation, medium concentration 0.5 μM) stood at 4.0 ± 0.4 µM. Also, in the assay with LLC-PK1 cells (read-out: Km of L-DOPA apical transporter, 6 min, 1 to 250 μM substrate), the Km came out at 47 ± 8 µM.
Consider `CNC(C)(C)C(=O)O` [MeAIB, N-(methylamino)-isobutyric acid], for which the “effect on the uptake of L-DOPA” value with LLC-PK1 cells (LLC-PK1 cells) is “failed to affect”.
On to `NC(CO)C(=O)NNCc1ccc(O)c(O)c1O` (centres unmarked) [benserazide], for which the 50% inhibitory concentration (IC50) in assay [2] came out at 0.07 µM.
As to `Oc1ccc(C=Cc2cc(O)cc(O)c2)cc1` [resveratrol], the “effect on plasma levels of L-DOPA” value in assay [3] is “Increases in plasma levels of L-DOPA”. The “kidney AADC activity reduction” value in assay [4] (rat kidney) came to 38%. Further, in assay [4] (rat liver), the “liver AADC activity reduction” value stood at 48%. In addition, the DA level in assay [1] (setting [6]) is recorded as 280.6 ± 36.6 ng/g; in assay [1] (setting [8]) it was 412.5 ± 79.7 ng/g; in assay [1] (setting [9]), 531.9 ± 41.6 ng/g; in assay [1] (setting [10]), 403.2 ± 99.2 ng/g; in assay [1] (setting [11]) it was 685.4 + 148.4 ng/g; in assay [1] (setting [12]) it was 622.5 + 61.5* ng/g. Besides, the values for the DA level in assay [1] (setting [13]), in assay [1] (setting [14]) and in assay [1] (setting [15]) were 615.0 + 60.8* ng/g, 710.3 + 67.2* ng/g and 864.4 + 316.1* ng/g, respectively. For the same compound, the DOPAC level in assay [1] (setting [6]) is reported as 192.7 ± 13.8 ng/g; in assay [1] (setting [7]), 149.9 ± 15.8 ng/g; in assay [1] (setting [8]), 221.2 ± 33.8 ng/g; in assay [1] (setting [9]) it was 316.6 ± 20.9 ng/g; in assay [1] (setting [10]), 257.8 ± 51.1 ng/g; in assay [1] (setting [11]) it was 564.2 + 183.0 ng/g. Besides, the DOPAC level in assay [1] (setting [12]) was 598.3 + 144.5 ng/g; in assay [1] (setting [13]), 420.4 + 33.3* ng/g; in assay [1] (setting [14]) it was 476.3 + 52.8* ng/g; in assay [1] (setting [15]) it was 731.9 + 427.3 ng/g. The HVA level in assay [1] (setting [6]) turned out to be 3975.5 ± 462.1 ng/g; in assay [1] (setting [7]) it was 3068.6 ± 234.4 ng/g; in assay [1] (setting [8]) it was 3026.5 ± 337.2 ng/g; in assay [1] (setting [9]), 2449.5 ± 93.5 ng/g; in assay [1] (setting [10]) it was 3324.8 ± 529.4 ng/g; in assay [1] (setting [11]), 27169.4 ± 2617.0 ng/g. For the same compound, the HVA level in assay [1] (setting [12]) amounted to 26254.3 ± 3677.0 ng/g; in assay [1] (setting [13]) it was 29094.8 ± 3342.3 ng/g; in assay [1] (setting [14]), 25779.8 ± 3941.7 ng/g; in assay [1] (setting [15]), 27923.6 ± 10686.2 ng/g. The L-DOPA level in assay [1] (setting [6]) is reported as 146.8 ± 14.9 ng/g; in assay [1] (setting [7]), 143.5 ± 29.1 ng/g; in assay [1] (setting [8]), 180.9 ± 26.3 ng/g; in assay [1] (setting [9]) it was 208.4 ± 21.8 ng/g; in assay [1] (setting [10]) it was 294.0 ± 52.1 ng/g; in assay [1] (setting [11]) it was 857.4 + 103.3* ng/g. Moreover, the L-DOPA level in assay [1] (setting [12]) is recorded as 739.3 + 144.7* ng/g; in assay [1] (setting [13]), 1016.2 + 121.5* ng/g; in assay [1] (setting [14]) it was 949.3 + 126.4* ng/g; in assay [1] (setting [15]), 1198.6 + 225.1* ng/g.

The values are drawn from patent publication US20040242503A1 (priority 2000, published 2004).
